Source: US20070099877A1, “N-aryl-thienopyrimidin-4-amines and analogs as activators of caspases and inducers of apoptosis and the use thereof” (Cytovia, Inc., priority 2005, published 2007)
Where a name gives a salt, the structure may show the parent alone.

system: human breast cancer cell line T-47D; assay: Caspase cascade activation (DEVD-R110 fluorogenic substrate) in T-47D cells; format: cell-based; conditions: Homo sapiens, T47D, 24 h, T47D cells, 24 h; read-out: Caspase activation Potency EC50 T47D (24 h)
Description: (§1) Human breast cancer cell line T-47D, human lung cancer cell line H1299, human hepatocellular carcinoma cell line SNU398, human colon carcinoma cell line HCT116 were grown according to media component mixtures designated by American Type Culture Collection+10% FCS (Invitrogen Corporation), in a 5% CO2-95% humidity incubator at 37° C. T-47D and H1299 cells were maintained at a cell density between 50 and 80% confluency at a cell density of 0.1 to 0.6×10^6 cells/mL. Cells were harvested at 600×g and resuspended at 0.65×10^6 cells/mL into appropriate media+10% FCS. An aliquot of 22.5 μL of cells was added to a well of a 384-well microtiter plate containing 2.5 μL of a 10% DMSO in RPMI-1640 media solution containing 0.16 to 100 μM of N-(2,5-dimethoxyphenyl)-2-methylthieno[3,2-d]pyrimidin-4-amine or other test compound (0.016 to 10 μM final). An aliquot of 22.5 μL of cells was added to a well of a 384-well microtiter plate containing 2.5 μL of a 10% DMSO in RPMI-1640 media solution without test compound as the control sample. The samples were mixed by agitation and then incubated at 37° C. for 24 h or 48 h in a 5% CO2-95% humidity incubator. After incubation, the samples were removed from the incubator and 25 μL of a solution containing 14 μM of N-(Ac-DEVD)-N′-ethoxycarbonyl-R110 (SEQ ID NO.:1) fluorogenic substrate (Cytovia, Inc.; WO99/18856), 20% sucrose (Sigma), 20 mM DTT (Sigma), 200 mM NaCl (Sigma), 40 mM Na PIPES buffer pH 7.2 (Sigma), and 500 μg/mL lysolecithin (Calbiochem) was added. The samples were mixed by agitation and incubated at room temperature. Using a fluorescent plate reader (Model SPECTRAfluor Plus, Tecan), an initial reading (T=0) was made approximately 1-2 min after addition of the substrate solution, employing excitation at 485 nm and emission at 530 nm, to determine the background fluorescence of the control sample. After the 3 h incubation, the samples were read for fluorescence as above (T=3 h).
(§2) The Relative Fluorescence Unit values (RFU) were used to calculate the sample readings as follows: RFU(T=3h)−Control RFU(T=O)=Net RFU(T=3h)
(§3) The activity of caspase cascade activation was determined by the ratio of the net RFU value for N-(2,5-dimethoxyphenyl)-2-methylthieno[3,2-d]pyrimidin-4-amine or other test compound to that of control samples. The EC50 (nM) was determined by a sigmoidal dose-response calculation (Prism 3.0, GraphPad Software Inc.).

SMILES | EC50 [µM]
COc1ccc(Nc2nc(C)nc3sccc23)cc1 [Example 15, N-(4-Methoxyphenyl)-2-methylthieno[2,3-d]pyrimidin-4-amine] | 5.74
COc1ccc(OC)c(Nc2ncnc3c(C)c(I)sc23)c1 [Example 18, 6-Iodo-N-(2,5-dimethoxyphenyl)-7-methylthieno[3,2-d]pyrimidin-4-amine hydrochloride] | 0.071
COc1ccc(OC)c(Nc2ncnc3cc(-c4ccccc4)sc23)c1 [Example 32, N-(2,5-Dimethoxyphenyl)-6-phenylthieno[3,2-d]pyrimidin-4-amine] | 2.07
COc1ccc(OC)c(Nc2nc(-c3ccccc3)nc3ccsc23)c1 [Example 26, N-(2,5-Dimethoxyphenyl)-2-phenylthieno[3,2-d]pyrimidin-4-amine] | 0.476
COc1ccc(OC)c(Nc2ncnc3sc(-c4ccccc4)c(C)c23)c1 [Example 16, N-(2,5-Dimethoxyphenyl)-5-methyl-6-phenylthieno[2,3-d]pyrimidin-4-amine hydrochloride] | > 10

The remaining lines, values ahead:

EC50 [µM] | SMILES
> 10 | COc1ccc(Oc2ccccc2)cc1Nc1ncnc2ccsc12 [Example 38, N-(2-Methoxy-5-phenoxyphenyl)thieno[3,2-d]pyrimidin-4-amine]
> 10 | COc1ccc(Nc2ncnc3ccsc23)c(OC)c1 [Example 8, N-(2,4-Dimethoxyphenyl)thieno[3,2-d]pyrimidin-4-amine hydrochloride]
> 10 | COc1cccc(C)c1Nc1ncnc2ccsc12 [Example 30, N-(2-Methoxy-6-methylphenyl)thieno[3,2-d]pyrimidin-4-amine]
5.24 | COc1ccc(C(C)(C)C)cc1Nc1ncnc2ccsc12 [Example 40, N-(5-tert-Butyl-2-methoxyphenyl)thieno[3,2-d]pyrimidin-4-amine]
> 10 | COc1ccc(N)cc1Nc1ncnc2ccsc12 [Example 72, N-(5-Amino-2-methoxyphenyl)thieno[3,2-d]pyrimidin-4-amine]
> 10 | COc1ccc(Cl)cc1Nc1ncnc2ccsc12 [Example 39, N-(5-Chloro-2-methoxyphenyl)thieno[3,2-d]pyrimidin-4-amine]
0.036 | COc1ccc(OC)c(Nc2ncnc3cc(I)sc23)c1 [Example 17, 6-Iodo-N-(2,5-dimethoxyphenyl)thieno[3,2-d]pyrimidin-4-amine hydrochloride]

same assay, conditions: Homo sapiens, T47D, 48 h, T-47D cells, 48 h; read-out: Caspase activation Potency EC50 T-47D (48 h)

SMILES | EC50 [µM]
COc1ccc(Nc2nc(C)nc3sccc23)cc1 [Example 15, N-(4-Methoxyphenyl)-2-methylthieno[2,3-d]pyrimidin-4-amine] | 5.46
COc1ccc(OC)c(Nc2ncnc3c(C)c(I)sc23)c1 [Example 18, 6-Iodo-N-(2,5-dimethoxyphenyl)-7-methylthieno[3,2-d]pyrimidin-4-amine hydrochloride] | 0.171
COc1ccc(OC)c(Nc2ncnc3cc(-c4ccccc4)sc23)c1 [Example 32, N-(2,5-Dimethoxyphenyl)-6-phenylthieno[3,2-d]pyrimidin-4-amine] | 4.01
COc1ccc(OC)c(Nc2nc(-c3ccccc3)nc3ccsc23)c1 [Example 26, N-(2,5-Dimethoxyphenyl)-2-phenylthieno[3,2-d]pyrimidin-4-amine] | 0.496
COc1ccc(OC)c(Nc2ncnc3sc(-c4ccccc4)c(C)c23)c1 [Example 16, N-(2,5-Dimethoxyphenyl)-5-methyl-6-phenylthieno[2,3-d]pyrimidin-4-amine hydrochloride] | > 10

Continued, values first:

EC50 [µM] | SMILES
> 10 | COc1ccc(Oc2ccccc2)cc1Nc1ncnc2ccsc12 [Example 38, N-(2-Methoxy-5-phenoxyphenyl)thieno[3,2-d]pyrimidin-4-amine]
> 10 | COc1ccc(Nc2ncnc3ccsc23)c(OC)c1 [Example 8, N-(2,4-Dimethoxyphenyl)thieno[3,2-d]pyrimidin-4-amine hydrochloride]
> 10 | COc1cccc(C)c1Nc1ncnc2ccsc12 [Example 30, N-(2-Methoxy-6-methylphenyl)thieno[3,2-d]pyrimidin-4-amine]
2.14 | COc1ccc(C(C)(C)C)cc1Nc1ncnc2ccsc12 [Example 40, N-(5-tert-Butyl-2-methoxyphenyl)thieno[3,2-d]pyrimidin-4-amine]
> 10 | COc1ccc(N)cc1Nc1ncnc2ccsc12 [Example 72, N-(5-Amino-2-methoxyphenyl)thieno[3,2-d]pyrimidin-4-amine]
6.9 | COc1ccc(Cl)cc1Nc1ncnc2ccsc12 [Example 39, N-(5-Chloro-2-methoxyphenyl)thieno[3,2-d]pyrimidin-4-amine]
0.105 | COc1ccc(OC)c(Nc2ncnc3cc(I)sc23)c1 [Example 17, 6-Iodo-N-(2,5-dimethoxyphenyl)thieno[3,2-d]pyrimidin-4-amine hydrochloride]

system: human lung cancer cell line H1299; assay: Caspase cascade activation in H1299 cells; format: cell-based; conditions: NCI-H1299, 24 h, read-out: Caspase activation Potency EC50 H1299 (24 h)
Description: as §1, §2, §3

SMILES | EC50 [µM]
COc1ccc(Nc2nc(C)nc3sccc23)cc1 [Example 15, N-(4-Methoxyphenyl)-2-methylthieno[2,3-d]pyrimidin-4-amine] | 5.08
COc1ccc(OC)c(Nc2ncnc3c(C)c(I)sc23)c1 [Example 18, 6-Iodo-N-(2,5-dimethoxyphenyl)-7-methylthieno[3,2-d]pyrimidin-4-amine hydrochloride] | 2.79
COc1ccc(OC)c(Nc2ncnc3cc(-c4ccccc4)sc23)c1 [Example 32, N-(2,5-Dimethoxyphenyl)-6-phenylthieno[3,2-d]pyrimidin-4-amine] | 1.42
COc1ccc(OC)c(Nc2nc(-c3ccccc3)nc3ccsc23)c1 [Example 26, N-(2,5-Dimethoxyphenyl)-2-phenylthieno[3,2-d]pyrimidin-4-amine] | 5.04
COc1ccc(OC)c(Nc2ncnc3sc(-c4ccccc4)c(C)c23)c1 [Example 16, N-(2,5-Dimethoxyphenyl)-5-methyl-6-phenylthieno[2,3-d]pyrimidin-4-amine hydrochloride] | > 10

Other lines, results leading:

EC50 [µM] | SMILES
> 10 | COc1ccc(Oc2ccccc2)cc1Nc1ncnc2ccsc12 [Example 38, N-(2-Methoxy-5-phenoxyphenyl)thieno[3,2-d]pyrimidin-4-amine]
> 10 | COc1ccc(Nc2ncnc3ccsc23)c(OC)c1 [Example 8, N-(2,4-Dimethoxyphenyl)thieno[3,2-d]pyrimidin-4-amine hydrochloride]
5.11 | COc1cccc(C)c1Nc1ncnc2ccsc12 [Example 30, N-(2-Methoxy-6-methylphenyl)thieno[3,2-d]pyrimidin-4-amine]
5.49 | COc1ccc(C(C)(C)C)cc1Nc1ncnc2ccsc12 [Example 40, N-(5-tert-Butyl-2-methoxyphenyl)thieno[3,2-d]pyrimidin-4-amine]
> 10 | COc1ccc(N)cc1Nc1ncnc2ccsc12 [Example 72, N-(5-Amino-2-methoxyphenyl)thieno[3,2-d]pyrimidin-4-amine]
> 10 | COc1ccc(Cl)cc1Nc1ncnc2ccsc12 [Example 39, N-(5-Chloro-2-methoxyphenyl)thieno[3,2-d]pyrimidin-4-amine]
0.299 | COc1ccc(OC)c(Nc2ncnc3cc(I)sc23)c1 [Example 17, 6-Iodo-N-(2,5-dimethoxyphenyl)thieno[3,2-d]pyrimidin-4-amine hydrochloride]

system: human hepatocellular carcinoma cell line SNU398; assay: Caspase cascade activation in SNU398 cells; format: cell-based; conditions: Homo sapiens, SNU-398, 48 h, read-out: Caspase activation Potency EC50 SNU398 (48 h)
Description: as §1, §2, §3

SMILES | EC50 [µM]
COc1ccc(Nc2nc(C)nc3sccc23)cc1 [Example 15, N-(4-Methoxyphenyl)-2-methylthieno[2,3-d]pyrimidin-4-amine] | 5.28
COc1ccc(OC)c(Nc2ncnc3c(C)c(I)sc23)c1 [Example 18, 6-Iodo-N-(2,5-dimethoxyphenyl)-7-methylthieno[3,2-d]pyrimidin-4-amine hydrochloride] | > 10
COc1ccc(OC)c(Nc2ncnc3cc(-c4ccccc4)sc23)c1 [Example 32, N-(2,5-Dimethoxyphenyl)-6-phenylthieno[3,2-d]pyrimidin-4-amine] | 1.6
COc1ccc(OC)c(Nc2nc(-c3ccccc3)nc3ccsc23)c1 [Example 26, N-(2,5-Dimethoxyphenyl)-2-phenylthieno[3,2-d]pyrimidin-4-amine] | > 10
COc1ccc(OC)c(Nc2ncnc3sc(-c4ccccc4)c(C)c23)c1 [Example 16, N-(2,5-Dimethoxyphenyl)-5-methyl-6-phenylthieno[2,3-d]pyrimidin-4-amine hydrochloride] | > 10

The next lines start with the values.

EC50 [µM] | SMILES
> 10 | COc1ccc(Oc2ccccc2)cc1Nc1ncnc2ccsc12 [Example 38, N-(2-Methoxy-5-phenoxyphenyl)thieno[3,2-d]pyrimidin-4-amine]
> 10 | COc1ccc(Nc2ncnc3ccsc23)c(OC)c1 [Example 8, N-(2,4-Dimethoxyphenyl)thieno[3,2-d]pyrimidin-4-amine hydrochloride]
> 10 | COc1cccc(C)c1Nc1ncnc2ccsc12 [Example 30, N-(2-Methoxy-6-methylphenyl)thieno[3,2-d]pyrimidin-4-amine]
4.85 | COc1ccc(C(C)(C)C)cc1Nc1ncnc2ccsc12 [Example 40, N-(5-tert-Butyl-2-methoxyphenyl)thieno[3,2-d]pyrimidin-4-amine]
> 10 | COc1ccc(N)cc1Nc1ncnc2ccsc12 [Example 72, N-(5-Amino-2-methoxyphenyl)thieno[3,2-d]pyrimidin-4-amine]
> 10 | COc1ccc(Cl)cc1Nc1ncnc2ccsc12 [Example 39, N-(5-Chloro-2-methoxyphenyl)thieno[3,2-d]pyrimidin-4-amine]
0.534 | COc1ccc(OC)c(Nc2ncnc3cc(I)sc23)c1 [Example 17, 6-Iodo-N-(2,5-dimethoxyphenyl)thieno[3,2-d]pyrimidin-4-amine hydrochloride]

system: human colon carcinoma cell line HCT116; assay: Caspase cascade activation in HCT116 cells; format: cell-based; conditions: Homo sapiens, HCT-116, 48 h, read-out: Caspase activation Potency EC50 HCT116 (48 h)
Description: as §1, §2, §3

SMILES | EC50 [µM]
COc1ccc(Nc2nc(C)nc3sccc23)cc1 [Example 15, N-(4-Methoxyphenyl)-2-methylthieno[2,3-d]pyrimidin-4-amine] | > 10
COc1ccc(OC)c(Nc2ncnc3c(C)c(I)sc23)c1 [Example 18, 6-Iodo-N-(2,5-dimethoxyphenyl)-7-methylthieno[3,2-d]pyrimidin-4-amine hydrochloride] | > 10
COc1ccc(OC)c(Nc2ncnc3cc(-c4ccccc4)sc23)c1 [Example 32, N-(2,5-Dimethoxyphenyl)-6-phenylthieno[3,2-d]pyrimidin-4-amine] | 4.25
COc1ccc(OC)c(Nc2nc(-c3ccccc3)nc3ccsc23)c1 [Example 26, N-(2,5-Dimethoxyphenyl)-2-phenylthieno[3,2-d]pyrimidin-4-amine] | > 10
COc1ccc(OC)c(Nc2ncnc3sc(-c4ccccc4)c(C)c23)c1 [Example 16, N-(2,5-Dimethoxyphenyl)-5-methyl-6-phenylthieno[2,3-d]pyrimidin-4-amine hydrochloride] | > 10

The next lines start with the values.

EC50 [µM] | SMILES
> 10 | COc1ccc(Oc2ccccc2)cc1Nc1ncnc2ccsc12 [Example 38, N-(2-Methoxy-5-phenoxyphenyl)thieno[3,2-d]pyrimidin-4-amine]
> 10 | COc1ccc(Nc2ncnc3ccsc23)c(OC)c1 [Example 8, N-(2,4-Dimethoxyphenyl)thieno[3,2-d]pyrimidin-4-amine hydrochloride]
> 10 | COc1cccc(C)c1Nc1ncnc2ccsc12 [Example 30, N-(2-Methoxy-6-methylphenyl)thieno[3,2-d]pyrimidin-4-amine]
> 10 | COc1ccc(C(C)(C)C)cc1Nc1ncnc2ccsc12 [Example 40, N-(5-tert-Butyl-2-methoxyphenyl)thieno[3,2-d]pyrimidin-4-amine]
> 10 | COc1ccc(N)cc1Nc1ncnc2ccsc12 [Example 72, N-(5-Amino-2-methoxyphenyl)thieno[3,2-d]pyrimidin-4-amine]
> 10 | COc1ccc(Cl)cc1Nc1ncnc2ccsc12 [Example 39, N-(5-Chloro-2-methoxyphenyl)thieno[3,2-d]pyrimidin-4-amine]
0.346 | COc1ccc(OC)c(Nc2ncnc3cc(I)sc23)c1 [Example 17, 6-Iodo-N-(2,5-dimethoxyphenyl)thieno[3,2-d]pyrimidin-4-amine hydrochloride]
